Measured values published in article PMC7316994, “In Vitro Pharmacological Profile of a New Small Molecule Bradykinin B2 Receptor Antagonist” (Frontiers in Pharmacology, 2020).
Where two headings read alike, the source gives them in different places. Peptide text beside a SMILES is read from it.

Experiments:
[1] = target: T1, 5-HT2A receptor (Homo sapiens, UniProt P28223); test: umbilical vein, serotonin-induced contraction; conditions: Compound 2 10 μM; Compound 3 1 μM
T1 construct: other endogenously expressed receptors in the human umbilical vein; from tissue; host or cells: human umbilical vein rings
T1 sequence (P28223 whole entry): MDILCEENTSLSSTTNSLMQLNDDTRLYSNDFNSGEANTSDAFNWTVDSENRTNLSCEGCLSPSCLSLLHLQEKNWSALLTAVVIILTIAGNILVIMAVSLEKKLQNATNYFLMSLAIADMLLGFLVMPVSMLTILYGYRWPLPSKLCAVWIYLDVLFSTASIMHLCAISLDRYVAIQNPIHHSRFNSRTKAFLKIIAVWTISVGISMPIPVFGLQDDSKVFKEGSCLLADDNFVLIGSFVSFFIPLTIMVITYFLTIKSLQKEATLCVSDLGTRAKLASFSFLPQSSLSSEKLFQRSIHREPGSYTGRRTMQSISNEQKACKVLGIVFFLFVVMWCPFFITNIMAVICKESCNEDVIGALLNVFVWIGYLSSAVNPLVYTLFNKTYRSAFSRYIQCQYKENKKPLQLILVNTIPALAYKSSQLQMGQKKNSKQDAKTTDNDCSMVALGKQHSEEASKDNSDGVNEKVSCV
Description: (§1) The local ethics committee (CHU de Québec-Université Laval) had approved the project (File no. 2017-3720). Umbilical cords were obtained following elective caesarean sections; all problematic deliveries are excluded. Informed consent was obtained from the mothers. The cords were transported from the maternity ward to the laboratory in sterile Hank's balanced salt solution containing penicillin and streptomycin. Segments of umbilical veins were dissected carefully from the cords and a metal rod was inserted in the lumen. Excess connective tissue was excised and rings (2–3 mm wide) were cut. Rings of umbilical veins were suspended in 5-mL organ chambers containing oxygenated (95% O2, 5% CO2) and warmed (37°C) Krebs' solution between a metal hook and a thread loop. This solution had the following composition: NaCl 117.5 mM, KCl 4.7 mM, KH2PO4 1.2 mM, MgSO4 1.18 mM, CaCI2 2.5 mM, NaHCO3 25.0 mM, and D-glucose 5.5 mM. A baseline of one gram-weight was applied to these preparations. Changes of tension were recorded by using isometric transducers (model 52-9545, Harvard Bioscience, South Natick MA). Eight tissue baths are operated in parallel.
(§2) For this purpose, contractile responses to serotonin, acting on the 5-HT2A receptor, and U-46619, acting at the prostanoid TP receptor, were measured ([Rogines-Velo et al., 2002]; [Daray et al., 2003]).

[2] = Caco-2 permeation assay (bidirectional); conditions: human
[3] = target: T2, B2 receptor (Homo sapiens, UniProt P30411); test: Ca^2+ mobilization assay, transfected CHO cells; format: cell-based; set-up: host or cells: CHO cells; conditions: for IC50 / Kb: inhibition of response to 0.03 nM BK
T2 sequence (P30411 1-391): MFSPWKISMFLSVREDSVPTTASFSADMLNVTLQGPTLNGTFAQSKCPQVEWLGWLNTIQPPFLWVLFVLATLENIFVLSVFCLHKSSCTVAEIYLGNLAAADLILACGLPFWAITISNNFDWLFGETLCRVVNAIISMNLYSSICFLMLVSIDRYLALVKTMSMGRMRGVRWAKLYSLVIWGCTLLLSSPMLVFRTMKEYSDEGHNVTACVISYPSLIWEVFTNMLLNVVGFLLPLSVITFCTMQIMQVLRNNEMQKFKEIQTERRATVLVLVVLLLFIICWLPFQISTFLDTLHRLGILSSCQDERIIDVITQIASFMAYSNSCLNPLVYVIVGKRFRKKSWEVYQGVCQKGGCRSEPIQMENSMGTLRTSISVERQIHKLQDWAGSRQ

[4] = target: T3, prostanoid TP receptor (Homo sapiens, UniProt P21731); test: umbilical vein, U-46619-induced contraction; conditions: Compound 2 10 μM; Compound 3 1 μM
T3 construct: endogenous human prostanoid TP receptors in the umbilical vein model; from tissue; host or cells: human umbilical vein rings
T3 sequence (P21731 whole entry): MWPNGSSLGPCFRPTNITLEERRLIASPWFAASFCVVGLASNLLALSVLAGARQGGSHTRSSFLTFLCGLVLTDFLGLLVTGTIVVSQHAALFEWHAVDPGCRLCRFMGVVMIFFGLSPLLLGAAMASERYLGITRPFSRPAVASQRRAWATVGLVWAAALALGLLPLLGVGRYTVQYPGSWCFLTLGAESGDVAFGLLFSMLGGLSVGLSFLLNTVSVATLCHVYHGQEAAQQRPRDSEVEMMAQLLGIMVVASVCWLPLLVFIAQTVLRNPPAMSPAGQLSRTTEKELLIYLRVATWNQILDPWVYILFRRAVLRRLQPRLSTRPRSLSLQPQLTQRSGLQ
Description: as §1, §2

[5] = target: T2, B2 receptor; test: [^3H]BK competition binding assay, CHO cell membranes; set-up: host or cells: CHO cells; conditions: for IC50 / Ki: competition with 0.3 nM [^3H]BK; for fold lower affinity compared to Compound 3 and icatibant: radioligand binding
[6] = target: T4, human myc-B2 receptor (Homo sapiens, UniProt P30411); test: c-Fos immunoblot, HEK 293a cells stably expressing myc-B2 receptor; format: cell-based; conditions: BK 10 nM
T4 construct: expressed in transfected cells
T4 sequence (P30411 1-391): T2 sequence (P30411 1-391)
Description: Supplementary Methods: Immunoblots for c-Fos signaling
The construction of myc-tagged B2 receptor expression vector containing the human receptor sequence has been recently reported, as well as the derivation of HEK293a cell lines that stably express the construction (Charest-Morin et al., 2015). Immunoblotting experiments, conducted as described (Koumbadinga et al., 2010), were used to study the effect of selected antagonists on BK-induced signaling. Briefly, HEK 293a cells stably expressing the human myc-B2 receptor were stimulated with BK agonists for 60 min at 37°C, with or without a pretreatment with the antagonist (applied 15 min before BK). Total cell extracts were immunoblotted to detect c-Fos expression using the K-25 rabbit polyclonal antibodies (Santa Cruz Biotechnology, Dallas, TX; dilution 1:50,000). In these experiments, β-actin was used as a loading control and was detected using the monoclonal anti-β-actin antibody, clone AC-15 (Sigma-Aldrich; dilution 1:50,000).

[7] = target: T5, endogenous human B2 receptor (Homo sapiens, UniProt P30411); test: human isolated umbilical vein contractility assay, BK-induced contraction; conditions: for type of antagonism of BK: BK concentration-effect curves, Emax; for pA2 / Kb: Schild plot; for pA2 / Kb / Schild plot slope: Pharm/PCS, ± S.E.M. where given; for Kb: read-out: pA2 (converted); for Schild plot slope: Schild regression; for Maximal BK-induced response in absolute force units ± S.E.M.: vehicle: Icatibant 1.90, Compound 1 […]; for pA2 value converted into nM: potency from pA2
T5 construct: BK-induced contraction at endogenous human B2 receptor in the umbilical vein model; from tissue; host or cells: human umbilical vein rings (donor cords after elective caesarean section)
T5 sequence (P30411 1-391): T2 sequence (P30411 1-391)

[8] = microsomal stability; conditions: for microsomal CLint at 1 µM: male, Wistar, rat, liver microsomes, pH 7.4
[9] = target: T6, myc-tagged human B2 receptor (Homo sapiens, UniProt P30411); test: antibody internalization assay, HEK 293a cells; format: cell-based; conditions: BK 100 nM; antagonist 1 nM to 1 μM, 15 min before BK
T6 construct: expressed in transfected cells
Procedure: B2 receptor-mediated transport of immune complexes constructed at the cell surface was previously reported ([Bawolak et al., 2011]). Intact HEK 293a cells stably expressing the N-terminally myc-tagged B2 receptor construction (human sequence, [Charest-Morin et al., 2015]) were treated with the monoclonal anti-myc antibody (clone 4A6) conjugated with AlexaFluor-488 (Millipore, dilution 1:500) added to the culture medium. Cells were further incubated at 37°C. Without rinsing, a selected antagonist or their DMSO vehicle was added 5 min later, and BK (100 nM) or its saline vehicle 15 min later. After an additional 30 min incubation period at 37°C, cells were rinsed 3 times with Hank's balanced salt solution (Multicell Wisent, St. Bruno, Canada) and photographed in transmission and epifluorescence using an Olympus BX51 microscope coupled to a CoolSnap HQ digital camera (filters for AlexaFluor 488: excitation 460–500 nm, emission 510–560 nm).

[10] = target: T7, cynomolgus monkey B2 receptor (Macaca fascicularis, UniProt A0A7N9CWN6); conditions: mean ± S.D.
T7 sequence (A0A7N9CWN6 1-391): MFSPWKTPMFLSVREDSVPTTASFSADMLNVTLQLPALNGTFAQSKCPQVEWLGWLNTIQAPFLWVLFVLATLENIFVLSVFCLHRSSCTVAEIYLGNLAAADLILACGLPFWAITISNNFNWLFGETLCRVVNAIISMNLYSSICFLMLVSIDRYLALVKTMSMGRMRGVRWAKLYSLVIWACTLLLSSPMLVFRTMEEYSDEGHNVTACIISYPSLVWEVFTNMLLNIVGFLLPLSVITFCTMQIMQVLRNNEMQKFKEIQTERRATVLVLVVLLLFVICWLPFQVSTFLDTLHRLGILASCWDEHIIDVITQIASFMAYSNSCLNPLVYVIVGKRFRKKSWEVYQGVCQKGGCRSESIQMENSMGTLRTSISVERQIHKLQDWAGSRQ

[11] = target: T7, cynomolgus monkey B2 receptor; test: cell-based
[12] = arithmetic mean, read-out: IC50 (nM) Mean
[13] = arithmetic mean, read-out: Kb (nM) Mean
[14] = geometric mean, read-out: IC50 (nM) Geometric mean
[15] = geometric mean, read-out: Kb (nM) Geometric mean
[16] = arithmetic mean, read-out: Ki (nM) Mean
[17] = geometric mean, read-out: Ki (nM) Geometric mean
[18] = antagonist 10 nM, Compound 2 2.25, Compound 3 1.52
[19] = antagonist 100 nM, Compound 2 2.25, Compound 3 1.52
[20] = antagonist 1 μM, Compound 2 2.25, Compound 3 1.52
[21] = antagonist 10 μM, Compound 2 2.25

Row | Compound | Papp A→B at 60 min, 10 µM [2] [×10⁻⁶ cm/s] | Papp B→A at 60 min, 10 µM [2] [×10⁻⁶ cm/s] | efflux ratio at 60 min, 10 µM [2] | IC50 [3, 12] [nM] | Kb [3, 13] [nM] | IC50 [3, 14] [nM] | Kb [3, 15] [nM] | IC50 [5, 12] [nM] | Ki [5, 16] [nM] | IC50 [5, 14] [nM] | Ki [5, 17] [nM] | fold lower affinity compared to Compound 3 and icatibant [5] | type of antagonism of BK [7] | pA2 [7] | Kb [7] [nM] | Schild plot slope [7] | Maximal BK-induced response in absolute force units ± S.E.M. [7, 18] [grams-weight] | Maximal BK-induced response in absolute force units ± S.E.M. [7, 19] [grams-weight] | Maximal BK-induced response in absolute force units ± S.E.M. [7, 20] [grams-weight] | Maximal BK-induced response in absolute force units ± S.E.M. [7, 21] [grams-weight] | other results
1 | Cc1cc(-c2ncnn2C)c2cccc(OCc3c(Cl)cncc3C(C)NC(=O)COC(F)F)c2n1 (racemic) [Compound 2, rac-N-(1-(5-chloro-4-((2-methyl-4-(1-methyl-1H-1,2,4-triazol-5-yl)quinolin-8-yloxy)methyl)pyridin-3-yl)ethyl)-2-(difluoromethoxy)acetamide] | 3.9 | 29.9 | 7.7 | 9.57 | 1.08 | 8.3 | 0.95 | 7.6 | 3.9 | 7.6 | 3.9 | about 7 fold | competitive | 9.02 ± 0.31 | 0.955 | −0.65 | 2.07 ± 0.30 | 2.26 ± 0.42 | 2.00 ± 0.32 | 1.82 ± 0.18 | effect on serotonin-induced contraction [1]: failed to modify; fold lower potency compared with Compound 3 ([3]; B2 receptor): 4.0 fold; effect on U-46619-induced contraction [4]: failed to modify; antagonist concentration that significantly reduced the c-Fos response to BK ([6]; 60 min): 100 nM; effect on BK-induced c-Fos accumulation ([6]; co-treatment between 10 nM and 1 μM): inhibited this response in a concentration-dependent manner; pA2 value converted into nM [7]: 0.95 nM; microsomal CLint at 1 µM [8]: 497 µL/min/mg; fold lower intrinsic clearance compared with Compound 3 (so in the source) ([8]; rat microsomal stability assay): 18 fold; concentration with clear efficacy in inhibiting BK-induced endocytosis [9]: ≥ 100 nM
2 | N=C(N)NCCC[C@H](NC(=O)[C@H](Cc1ccccc1)NC(=O)[C@@H]1CCCN1C(=O)[C@H](CO)NC(=O)[C@H](Cc1ccccc1)NC(=O)CNC(=O)[C@@H]1CCCN1C(=O)[C@@H]1CCCN1C(=O)[C@@H](N)CCCNC(=N)N)C(=O)O [BK] (H-RPPGFSPFR-OH) |  |  |  |  |  |  |  |  |  |  |  |  |  |  |  |  |  |  |  |  | average agonist EC80, Ca^2+ mobilization [10]: 0.539 ± 0.16 nM
3 | NC(N)=NCCC[C@H](NC(=O)[C@H](Cc1ccccc1)NC(=O)[C@@H]1CCCN1C(=O)[C@H](CO)NC(=O)[C@H](Cc1ccccc1)NC(=O)CNC(=O)[C@@H]1CCCN1C(=O)[C@@H]1CCCN1C(=O)[C@@H](N)CCCN=C(N)N)C(=O)O [BK] (H-RPPGFSPFR-OH) |  |  |  |  |  |  |  |  |  |  |  |  |  |  |  |  |  |  |  |  | EC50 [11]: 0.155 ± 0.043 nM
4 | Cc1cc(-c2ncnn2C)c2cccc(OCc3c(Cl)cncc3CNC(=O)C3CCCCC3)c2n1 [Compound 1, N-((5-chloro-4-((2-methyl-4-(1-methyl-1H-1,2,4-triazol-5-yl)quinolin-8-yloxy)methyl)pyridin-3-yl)methyl)cyclohexanecarboxamide] | 5.5 | 20.9 | 5.5 | 11.3 | 1.3 | 11 | 1.24 | 7.4 | 3.8 | 7.4 | 3.8 | about 7 fold | competitive | 8.58 ± 0.26 | 2.63 | −0.62 | 1.48 ± 0.24 | 2.08 ± 0.28 | 1.46 ± 0.20 | 1.67 ± 0.28 | pA2 value converted into nM [7]: 2.63 nM; microsomal CLint at 1 µM [8]: 960 µL/min/mg
